For experiment [1], the system named is 8 mm wide circular excisional skin injuries. As to the kind of experiment: Large (8 mm) excisional skin injury in adult mice. Type of experiment: in vivo, mouse. The protocol: Anesthetized adult mice had 8 mm wide circular excisional skin injuries made by fine surgical scissors down to the underlying muscle in the dorsal mid line between the shoulder blades (i.e., as shown in (a) an (b). The boundary of the injury was demarcated by an 8 mm wide circular template cut in a plastic sheet. 100 μl of a solution of 30% pluronic gel containing either no (control) or dissolved ACT 1 peptide (SEQ ID NO:2) at a concentration of 100 μM was then applied to the excisional injuries. Control or ACT peptide containing gel was applied subsequently 24 hours after the initial application. No further applications of control and ACT peptide containing gel were made after the second application. […] Note that images of the same injury on the same animal are shown at the different time points during the healing time course. […] Skin biopsies of the entire wound site were taken from some of the mice 24 hours following the excisional injury in the experiment described in FIG. 6. Figures (a) and (b) show low magnification survey views of cross-sections from near the center of the wound of control and ACT peptide treated injuries respectively. The wound edge (marked by the small arrows), bounded by skin of normal histological appearance, can be seen in both cases. A black rectangle is placed over the images in (a) and (b) at the left hand wound edge. The histological structures within these two rectangles are shown at higher magnification in (c) and (d) for control and ACT peptide treated tissues, respectively. Of most interest is a “collar-like” tissue of aligned fibrous material (arrowed) projecting from basal parts of the injury to or toward the wound edge and exterior surface of injury. The aligned fibrous substrate has the appearance of being much more organized in the control injury (d) than in the ACT peptide treated injury (c). […] This is confirmed in (e) and (f) where regions of histological section within the black rectangles shown in (c) and (d) are respectively shown at higher magnification. The inflammatory cells studding the aligned fibrous substrate include mast cells, neutrophils and macrophages. These inflammatory cells occur at much higher density in the control injury than in the ACT peptide treated injury. […] At the end of the 14 day period in the experiment described in FIG. 6, skin biopsies of the entire excisional injury were taken and histological sections from these skin samples were H&E histochemically stained. Figures (a) and (b) show low magnification survey views of cross-sections from near the center of the injury of ACT peptide and control respectively. The wound edge (marked by the small arrows), bounded by skin of normal histological appearance, can be seen in both cases. A black rectangle is placed over the images in (a) and (b) near the center of each injury. The histological structures within these two rectangles are shown at higher magnification in (c) and (d) for the ACT peptide and control tissues respectively. It is evident that tissue within the ACT peptide treated injury locus has considerably more complexity. […] By comparison, re-epithelization of the injury surface is incomplete and there is no sign of regenerating hair follicles in the epithelium of the control injury (d). […] As with, the hair follicles this tissue complexity was regenerated by differentiation of stem cells. […]

For experiment [2], the system named is 5 mm diameter excisional skin wounds. As to the kind of experiment: Small (5 mm) excisional skin wounds in adult mice, ACT 1 to ACT 5. It counts as in vivo, mouse. The protocol:
Anesthetized adult mice had 2 small (5 mm diameter) excisional skin wounds made by fine surgical scissors on the neck and (upper) back. The boundaries of the injuries were demarcated by a 5 mm wide circular template cut in a plastic sheet. 50-60 μl of a solution of 20% pluronic gel containing either no (control) or one of the ACT peptides (ACT 2-SEQ ID NO: 1, ACT 1-SEQ ID NO:2, ACT 3-SEQ ID NO:3, ACT 4-SEQ ID NO:4, ACT 5-SEQ ID NO:5) dissolved at concentrations of 100 μM were then applied to the excisional injuries. Control or ACT peptide-containing gel was applied subsequently 24 hours after the initial application. No further applications of control and ACT peptide-containing gel were made after the second application. […] Note that the same wound on the same animal is shown at the different time points during the healing time course. Anesthetized adult mice had 2 small (5 mm diameter) excisional skin wounds made by fine surgical scissors on the neck and (upper) back. The boundaries of the injuries were demarcated by a 5 mm wide circular template cut in a plastic sheet. 50-60 μl of a solution of 30% pluronic gel containing either no (control) or one of the ACT peptides (ACT 2—SEQ ID NO:1, ACT 1—SEQ ID NO:2, ACT 3—SEQ ID NO:3, ACT 4—SEQ ID NO:4, ACT 5—SEQ ID NO:5) dissolved at concentrations of 100 μM were then applied to the excisional injuries. Control or ACT peptide-containing gels were applied subsequently 24 hours after the initial application. No further applications of control and ACT peptide-containing gel were made after the second application. […] Note that the same wound on the same animal is shown at the different time points during the healing time course. The area of open wound was measured during the time course using NIH image according to standard protocols on multiple (˜5 mice per control or treatment condition) adult mice. These individual area measurements were then normalized to (i.e., divided by) the average area measured for the control injuries for a given time point, multiplied by 100 to give a % of unclosed wound relative to the control and then plotted against time. A Mann-Whitney U-test was used to statistically assess the effects of ACT peptides over the time course. […] These treatments provided results with significant p values.

Ends that are not written are not given here.

Regarding “RPRPDDLEI (not fully specified (N-terminus)) [ACT 1, carboxy-terminal 9 amino acids of human Cx43; amino terminus biotinylated in tests]”, the “closure, inflammation, healing and scarring of injury” value in experiment [1] (100 μM in 30% pluronic gel, 100 μl, applied at 0 and 24 hours, 14 day time course, vs gel without peptide) is “closed faster, was less inflamed in appearance, healed faster and scarred less”. Moreover, in experiment [1] (100 μM, 14 days, H&E histology), the “re-epithelization of the injured surface” value is listed as “re-epithelization of the injured surface is complete”, the “regenerating hair follicles in the new epithelium” value is recorded as “regenerating hair follicles can already be seen” and the “restoration of tissue structural complexity beneath the reformed epithelium” value is “considerable restoration of normal structural complexity”. In experiment [1] (100 μM, skin biopsy 24 hours after injury, H&E histology), the “density of inflammatory cells studding the fibrous substrate at the wound edge” value is given as “considerably lower density of inflammatory cells”. Further, the “closure, inflammation, healing and scarring of injuries” value in experiment [2] (100 μM in pluronic gel, 50-60 μl, applied at 0 and 24 hours, 240 hour time course (10 days), vs gel without peptide) was “closed faster, were significantly less inflamed in appearance, healed faster and scarred less”. In addition, the “size of improvement in wound closure over the control, compared among peptides” value in experiment [2] (100 μM, over the time course) was “most pronounced improvements over the control”. The “wound closure rates (area of open wound as % of unclosed wound relative to the control)” value in experiment [2] (100 μM, ~5 mice per condition, Mann-Whitney U-test over the time course) was “significantly improved wound closure rates”.
